From article PMC7822874, “Chemoprotective antimalarials identified through quantitative high-throughput screening of Plasmodium blood and liver stage parasites” (Scientific Reports, 2021)
Like-named read-outs stand apart in the source and are kept apart here.

Columns and labels:
[1] = tested on: luciferase-expressing P. berghei liver stage parasites in HepG2 cells; test: Inhibition of liver-stage development assay (ILSDA), Method 2 (WRAIR, 96-well); assay type: cell-based, Plasmodium berghei; conditions: for Activity direction (Decrease / Inactive): P. berghei liver stage; for Max Resp (signal direction of the dose response): Decrease = decreasing P. berghei viability with dose, Increase = increasing signal, Inactive = no dose response
[2] = tested on: Plasmodium falciparum Dd2 asexual blood stage parasites; test: microbe, parasite or virus in culture; parameters: species or system Plasmodium falciparum Dd2 in human erythrocytes; single determination (one 11-point concentration-response curve); conditions: Plasmodium falciparum, DD2, Erythrocyte, 72 h; read-out: AC50
in vitro = conditions: human, hepg2-a16-cd81egfp cells, % viability
[3] = Plasmodium berghei, HepG2, P. berghei liver stage, Method 2, dose response, read-out: AC50
[4] = Plasmodium berghei, HepG2, P. berghei liver stage, Method 2, dose response, read-out: Log AC50 (converted)
[5] = Plasmodium berghei, HepG2, Method 2, Hill fit, 50% of maximum activity response, read-out: AC50
[6] = Plasmodium berghei, HepG2, Method 2, log10 of molar AC50 from Hill fit, read-out: Log AC50 (converted)

O=c1[nH]c(N2CCOCC2)nc2c1CCN(Cc1cc(Cl)ccc1F)CC2 [NCGC00440651]
Activity direction (Decrease / Inactive) ([1]; Method 2, dose response): Decrease
AC50 [1, 3]: 0.2 µM
AC50 [1, 4]: 0.2 µM

CC(=O)Nc1ccc2c(c1)[S+](=O)([O-])N=C(CC(C)C)N2CC(C)C [NCGC00473311-01]
Activity direction (Decrease / Inactive) ([1]; Method 2, dose response): Inactive

CCC(C)C1=N[S+](=O)([O-])c2cc(NC(=O)c3ccco3)ccc2N1c1ccccc1 (stereo not shown) [NCGC00473608-01]
Activity direction (Decrease / Inactive) ([1]; Method 2, dose response): Decrease
AC50 [1, 3]: 3.98 µM
AC50 [1, 4]: 3.98 µM

CC(C)CCN1CC(CN[S+](=O)([O-])c2ccccc2)C2(C1)CN(c1ccccc1)C2 (stereo not shown) [NCGC00415920-01]
Activity direction (Decrease / Inactive) ([1]; Method 2, dose response): Decrease
AC50 [1, 3]: 2.82 µM
AC50 [1, 4]: 2.82 µM

Cc1ccc2[nH]c(-c3ccccc3)cc(=O)c2c1 [MLS000112473-01]
Max Resp (signal direction of the dose response) ([1]; Method 2): Decrease
AC50 [1, 5]: 5.62 µM
AC50 [1, 6]: 5.62 µM
AC50 [2]: 4.73 µM

c1ccc(NCC2CN(Cc3ccccn3)CC23CN(c2ccccc2)C3)cc1 (stereo not shown) [NCGC00415982-01]
Activity direction (Decrease / Inactive) ([1]; Method 2, dose response): Inactive

CC(C)CC1=N[S+](=O)([O-])c2cc(NC(=O)C3CC3)ccc2N1c1ccccc1 [NCGC00475156-01]
Activity direction (Decrease / Inactive) ([1]; Method 2, dose response): Decrease
AC50 [1, 3]: 3.16 µM
AC50 [1, 4]: 3.16 µM

Cc1cccc(N(C)c2nc3ccccc3c3nnc(C)n23)c1 [NCGC00126108]
Max Resp (signal direction of the dose response) ([1]; Method 2): Decrease
AC50 ([1]; Method 2, Hill fit, 50% of maximum activity response, read-out: AC50): 0.2 µM
Log AC50 (M) ([1]; Method 2, log10 of molar AC50 from Hill fit): -6.700 M

Oc1ccccc1CN1CC(CNc2cccnc2)C2(C1)CN(c1ccccc1)C2 (stereo not shown) [NCGC00415924-01]
Activity direction (Decrease / Inactive) ([1]; Method 2, dose response): Inactive
AC50 [2]: 10.9 µM

CCCCCCCc1c(C)[nH]c(N2CCOCC2)nc1=O [MLS000531187-01]
Max Resp (signal direction of the dose response) ([1]; Method 2): Decrease
AC50 [1, 5]: 5.62 µM
AC50 [1, 6]: 5.62 µM
AC50 [2]: 5.31 µM

Nc1nonc1-n1nnc(C(=O)N/N=C/c2ccc(Cl)cc2)c1-c1ccc2c(c1)OCO2 [MLS001142698]
viability at 3 µM (in vitro): 104%

O=C(NC(c1ccccc1)c1cc(Cl)c2cccnc2c1O)c1cccnc1 (stereo not shown) [MLS000573359]
viability at 3 µM (in vitro): 69.7%

COc1ccc(OC)c(-n2c(S)nnc2-c2ccc(O)cc2O)c1 [MLS000766628]
viability at 3 µM (in vitro): 104%

Cc1nc2ccc(NC(=O)c3cc(S(=O)(=O)N(C)c4ccccc4)ccc3Cl)cc2s1 [MLS000393823]
viability at 3 µM (in vitro): 59.7%

CC(=O)N1CCN(C(=O)c2ccc3c(c2)NC(C)(COc2ccc4[nH]ccc4c2)CO3)CC1 (stereo not shown) [NCGC00416302]
Activity direction (Decrease / Inactive) ([1]; Method 2, dose response): Inactive

O=C1C(c2ccc(C(F)(F)F)cc2)=C(Nc2ccc(Cl)cc2)c2ccccc21 [NCGC00107304]
Max Resp (signal direction of the dose response) ([1]; Method 2): Inactive

COc1ccccc1C1CC(c2ccccc2)=NN1C(=O)c1ccccc1 (stereo not shown) [MLS001197331]
viability at 3 µM (in vitro): 96.5%

CCN(CC)CCCN(c1ccccc1)C1Cc2ccccc2C1 [NCGC00167576]
viability at 3 µM (in vitro): 99.6%

Cc1ccc(NC2=C(c3ccc(C(F)(F)F)cc3)C(=O)c3ccccc32)cc1F [NCGC00107266]
Max Resp (signal direction of the dose response) ([1]; Method 2): Decrease
AC50 [1, 5]: 0.112 µM
AC50 [1, 6]: 0.112 µM

CCN1CCN(Cc2ccc(NC(=O)c3cc(NC(=O)c4cc(-c5ccc(OC)cc5)n[nH]4)cc(OC)c3)cc2C(F)(F)F)CC1 [MLS000911571]
viability at 3 µM (in vitro): 97%

CC(=O)Nc1ccc2c(c1)[S+](=O)([O-])N=C(CC(C)C)N2c1ccccc1 [NCGC00475154-01]
Activity direction (Decrease / Inactive) ([1]; Method 2, dose response): Inactive

CCOc1cc(C(=O)N2CCC(CC3CC(c4ccc(Cl)cc4)=NO3)(C(=O)NCC3CCCCC3)CC2)cc(OCC)c1OCC (stereo not shown) [MLS001143937]
viability at 3 µM (in vitro): 93.2%

O=C(Nc1ccc(C(F)(F)F)cc1)N1CCN(c2ccnc3cc(Cl)ccc23)CC1 [MLS000830170]
viability at 3 µM (in vitro): 90.8%

O=C(CCCCCCC(=O)Nc1ccccc1)NO [NCGC00168085]
viability at 3 µM (in vitro): 45.6%
